According to patent US20180228730A1, “USE OF WATER-SOLUBLE POLYMERS BASED ON N-VINYLPYRROLIDONE AND ACRYLIC ACID AS PHARMACEUTICAL ADJUVANTS” (BASF SE, priority 2015, published 2018):
Read-outs that look alike come from different tables or passages of the source.

Tests used:
[1] = Release of loperamide from extrudates in demineralized water (release device, UV/VIS); assay type: physicochemical; settings: 250 ml demineralized water, 37° C.; spectroscopic detection
Description: The active ingredient release from samples 14, 15, 16 and 17 were tested in a release device with automatic spectroscopic measurement (00501FEXXX-D). The extrudates having 5% content of active ingredient were added directly to the release medium at the beginning of the experiment. […] The mixtures were filled into hard gelatine capsules and released therefrom.
Procedure for release (2 hours):
Conditions 0-2 hours: Medium: • 250 ml of demineralized water; • paddle stirrer 50 rpm; • temperature 37° C. • content determination UV/VIS with 1 cm path length cuvette • active ingredient amount 250 mg
The results of the releases are compiled in the following tables and diagrams. The release is complete in all cases.

[2] = demineralized water, 100 mg haloperidol per 250 ml, hard gelatine capsules
Description: The release of the active ingredient from the spray-dried polymeric salt was carried out in demineralized water. The initial weight was calculated on 100 mg of haloperidol per 250 ml of release medium. The polymeric salt or the crystalline substance correspondingly weighed out were filled into hard gelatine capsules.

Row | Release of haloperidol ([2]; 0 min) | Release of haloperidol ([2]; 2 min) | Release of haloperidol ([2]; 4 min) | Release of haloperidol ([2]; 6 min) | Release of haloperidol ([2]; 8 min) | Release of haloperidol ([2]; 10 min) | Release of haloperidol ([2]; 30 min) | Release of haloperidol ([2]; 60 min) | Release of haloperidol ([2]; 120 min) | SMILES | Dissolution in the release medium [1]
1 |  |  |  |  |  |  |  |  |  | CN(C)C(=O)C(CCN1CCC(O)(c2ccc(Cl)cc2)CC1)(c1ccccc1)c1ccccc1 [crystalline loperamide (base), loperamide] | no dissolution at all
2 | 0.0% | 0.1% | 0.2% | 0.3% | 0.4% | 0.6% | 1.5% | 1.8% | 2.3% | O=C(CCCN1CCC(O)(c2ccc(Cl)cc2)CC1)c1ccc(F)cc1 [Crystalline haloperidol, haloperidol] | 
